# Assay results published in patent US12384808B2, “Modulators of TNF-α activity” (Forward Therapeutics, Inc., priority 2022, dated 2025).
# Target: TNFα (Homo sapiens, UniProt P01375)
# Test: TNFα Induced HEK Blue Cellular Assay
# Type: cell-based
# Settings: HEK Blue TNFα reporter cells, TNFα 100 pg/ml, 24 hrs at 37° C., secreted alkaline phosphatase (QUANTI-Blue) read at 620 nm; read-out: IC50 value
# Method in brief: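 IC50 fitted with a 4-parameter logistic model from % inhibition, normalised to DMSO controls with and without stimulation. Readout: QUANTI-Blue SEAP at 620 nm after 24 h, 37 °C exposure to TNFα (100 pg/ml final) and test compound at […]–0.5 nM final.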
# Chain of TNFα (P01375 77-233 limits assumed): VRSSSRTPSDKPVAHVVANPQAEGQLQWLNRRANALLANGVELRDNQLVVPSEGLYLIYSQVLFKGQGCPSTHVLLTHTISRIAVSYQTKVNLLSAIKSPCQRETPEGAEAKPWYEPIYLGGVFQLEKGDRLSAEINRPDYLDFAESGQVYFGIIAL
smiles,measurement,value
"[2H]C([2H])([2H])N1C(=O)c2cccc(OC(F)F)c2[C@H]2C[C@@H]1c1nc3cc(F)c(-c4cnc(P(C)(C)=O)cc4C)cc3n12 [Example 89, (7R,14R)-1-(difluoromethoxy)-11-(6-(dimethylphosphoryl)-4-methylpyridin-3-yl)-10-fluoro-6-(methyl-d3)-6,7-dihydro-7,14-methanobenzo[f]benzo[4,5]imidazo[1,2-a][1,4]diazocin-5(14H)-one]",IC50,10000 to 30000 nM
"[2H]C([2H])([2H])N1C(=O)c2cccc(OC(F)F)c2[C@H]2C[C@@H]1c1nc3ccc(-c4ccc(P(C)(C)=O)c(F)c4C)cc3n12 [Example 90, (7R,14R)-1-(difluoromethoxy)-11-(4-(dimethylphosphoryl)-3-fluoro-2-methylphenyl)-6-(methyl-d3)-6,7-dihydro-7,14-methanobenzo[f]benzo[4,5]imidazo[1,2-a][1,4]diazocin-5(14H)-one]",IC50,< 100 nM
"[2H]C([2H])([2H])N1C(=O)c2cccc(OC(F)F)c2[C@H]2C[C@@H]1c1nc3ccc(-c4ccc(P(C)(C)=O)nc4C)cc3n12 [Example 91, (7R,14R)-1-(difluoromethoxy)-11-(6-(dimethylphosphoryl)-2-methylpyridin-3-yl)-6-(methyl-d3)-6,7-dihydro-7,14-methanobenzo[f]benzo[4,5]imidazo[1,2-a][1,4]diazocin-5(14H)-one]",IC50,< 100 nM
"[2H]C([2H])([2H])N1C(=O)c2cccc(OC(F)F)c2[C@H]2C[C@@H]1c1nc3ccc(-c4ccc(P(C)(C)=O)nc4F)cc3n12 [Example 92, (7R,14R)-1-(difluoromethoxy)-11-(6-(dimethylphosphoryl)-2-fluoropyridin-3-yl)-6-(methyl-d3)-6,7-dihydro-7,14-methanobenzo[f]benzo[4,5]imidazo[1,2-a][1,4]diazocin-5(14H)-one]",IC50,< 100 nM
"[2H]C([2H])([2H])N1C(=O)c2cccc(OC(F)F)c2[C@H]2C[C@@H]1c1nc3ccc(-c4cnc(P(C)(C)=O)cc4Cl)cc3n12 [Example 93, (7R,14R)-11-(4-chloro-6-(dimethylphosphoryl)pyridin-3-yl)-1-(difluoromethoxy)-6-(methyl-d3)-6,7-dihydro-7,14-methanobenzo[f]benzo[4,5]imidazo[1,2-a][1,4]diazocin-5(14H)-one]",IC50,< 100 nM
"[2H]C([2H])([2H])N1C(=O)c2cccc(OC(F)F)c2[C@H]2C[C@@H]1c1nc3ccc(-c4ccc(P(C)(C)=O)nc4Cl)cc3n12 [Example 94, (7R,14R)-11-(2-chloro-6-(dimethylphosphoryl)pyridin-3-yl)-1-(difluoromethoxy)-6-(methyl-d3)-6,7-dihydro-7,14-methanobenzo[f]benzo[4,5]imidazo[1,2-a][1,4]diazocin-5(14H)-one]",IC50,< 100 nM
"[2H]C([2H])([2H])N1C(=O)c2cccc(OC(F)F)c2[C@H]2C[C@@H]1c1nc3ccc(-c4ccc(C(F)(F)P(C)(C)=O)cc4)cc3n12 [Example 95, (7R,14R)-1-(difluoromethoxy)-11-(4-((dimethylphosphoryl)difluoromethyl)phenyl)-6-(methyl-d3)-6,7-dihydro-7,14-methanobenzo[f]benzo[4,5]imidazo[1,2-a][1,4]diazocin-5(14H)-one]",IC50,< 100 nM
"CP(C)(=O)Cc1ccc(-c2ccc3nc4n(c3c2)[C@@H]2C[C@H]4NC(=O)c3cccc(OC(F)F)c32)c(F)c1 [Example 96, (7R,14R)-1-(difluoromethoxy)-11-(4-((dimethylphosphoryl)methyl)-2-fluorophenyl)-6,7-dihydro-7,14-methanobenzo[f]benzo[4,5]imidazo[1,2-a][1,4]diazocin-5(14H)-one]",IC50,100 to 1000 nM
"[2H]C([2H])([2H])N1C(=O)c2cccc(OC(F)F)c2[C@H]2C[C@@H]1c1nc3cc(F)c(-c4ccc(P(C)(C)=O)nc4C)cc3n12 [Example 97, (7R,14R)-1-(difluoromethoxy)-11-(6-(dimethylphosphoryl)-2-methylpyridin-3-yl)-10-fluoro-6-(methyl-d3)-6,7-dihydro-7,14-methanobenzo[f]benzo[4,5]imidazo[1,2-a][1,4]diazocin-5(14H)-one]",IC50,< 100 nM
"[2H]C([2H])([2H])N1C(=O)c2cccc(OC(F)F)c2[C@H]2C[C@@H]1c1nc3ccc(-c4ccc(NCP(C)(C)=O)nc4)cc3n12 [Example 98, (7R,14R)-1-(difluoromethoxy)-11-(6-(((dimethylphosphoryl)methyl)amino)pyridin-3-yl)-6-(methyl-d3)-6,7-dihydro-7,14-methanobenzo[f]benzo[4,5]imidazo[1,2-a][1,4]diazocin-5(14H)-one]",IC50,< 100 nM
"[2H]C([2H])([2H])N1C(=O)c2cccc(OC(F)F)c2[C@H]2C[C@@H]1c1nc3ccc(-c4ccc(C(O)P(=O)(CC)CC)cc4)cc3n12 (stereo partly drawn) [Example 101, (7R,14R)-11-(4-((diethylphosphoryl)(hydroxy)methyl)phenyl)-1-(difluoromethoxy)-6-(methyl-d3)-6,7-dihydro-7,14-methanobenzo[f]benzo[4,5]imidazo[1,2-a][1,4]diazocin-5(14H)-one]",IC50,< 100 nM
"[2H]C([2H])([2H])N1C(=O)c2cccc(OC(F)F)c2[C@H]2C[C@@H]1c1nc3ccc(-c4ccc(P(C)(C)=O)cc4C(F)F)cc3n12 [Example 102, (7R,14R)-1-(difluoromethoxy)-11-(2-(difluoromethyl)-4-(dimethylphosphoryl)phenyl)-6-(methyl-d3)-6,7-dihydro-7,14-methanobenzo[f]benzo[4,5]imidazo[1,2-a][1,4]diazocin-5(14H)-one]",IC50,< 100 nM
"[2H]C([2H])([2H])N1C(=O)c2cccc(OC(F)F)c2[C@H]2C[C@@H]1c1nc3ccc(-c4ccc(P(C)(C)=O)c(C(F)F)c4)cc3n12 [Example 103, (7R,14R)-1-(difluoromethoxy)-11-(3-(difluoromethyl)-4-(dimethylphosphoryl)phenyl)-6-(methyl-d3)-6,7-dihydro-7,14-methanobenzo[f]benzo[4,5]imidazo[1,2-a][1,4]diazocin-5(14H)-one]",IC50,< 100 nM
"[2H]C([2H])([2H])N1C(=O)c2cccc(OC(F)F)c2[C@H]2C[C@@H]1c1nc3ccc(-c4ccc(P(C)(C)=O)cc4C(F)(F)F)cc3n12 [Example 104, (7R,14R)-1-(difluoromethoxy)-11-(4-(dimethylphosphoryl)-2-(trifluoromethyl)phenyl)-6-(methyl-d3)-6,7-dihydro-7,14-methanobenzo[f]benzo[4,5]imidazo[1,2-a][1,4]diazocin-5(14H)-one]",IC50,100 to 1000 nM
"[2H]C([2H])([2H])N1C(=O)c2cccc(OC(F)F)c2[C@H]2C[C@@H]1c1nc3ccc(-c4ccc(P(C)(C)=O)c(C)c4)cc3n12 [Example 105, (7R,14R)-1-(difluoromethoxy)-11-(4-(dimethylphosphoryl)-3-methylphenyl)-6-(methyl-d3)-6,7-dihydro-7,14-methanobenzo[f]benzo[4,5]imidazo[1,2-a][1,4]diazocin-5(14H)-one]",IC50,< 100 nM
"[2H]C([2H])([2H])N1C(=O)c2cccc(OC(F)F)c2[C@H]2C[C@@H]1c1nc3ccc(-c4cc(C)c(P(C)(C)=O)c(F)c4)cc3n12 [Example 106, (7R,14R)-1-(difluoromethoxy)-11-(4-(dimethylphosphoryl)-3-fluoro-5-methylphenyl)-6-(methyl-d3)-6,7-dihydro-7,14-methanobenzo[f]benzo[4,5]imidazo[1,2-a][1,4]diazocin-5(14H)-one]",IC50,< 100 nM
"[2H]C([2H])([2H])N1C(=O)c2cccc(OC(F)F)c2[C@H]2C[C@@H]1c1nc3ccc(-c4ccc(P(C)(C)=O)c(C)c4F)cc3n12 [Example 107, (7R,14R)-1-(difluoromethoxy)-11-(4-(dimethylphosphoryl)-2-fluoro-3-methylphenyl)-6-(methyl-d3)-6,7-dihydro-7,14-methanobenzo[f]benzo[4,5]imidazo[1,2-a][1,4]diazocin-5(14H)-one]",IC50,< 100 nM
"[2H]C([2H])([2H])N1C(=O)c2cccc(OC(F)F)c2[C@H]2C[C@@H]1c1nc3ccc(-c4cc(F)c(CP(C)(C)=O)cc4C)cc3n12 [Example 108, (7R,14R)-1-(difluoromethoxy)-11-(4-((dimethylphosphoryl)methyl)-5-fluoro-2-methylphenyl)-6-(methyl-d3)-6,7-dihydro-7,14-methanobenzo[f]benzo[4,5]imidazo[1,2-a][1,4]diazocin-5(14H)-one]",IC50,< 100 nM
"[2H]C([2H])([2H])N1C(=O)c2cccc(OC(F)F)c2[C@H]2C[C@@H]1c1nc3ccc(-c4ccc(P(C)(C)=O)c(F)n4)cc3n12 [Example 115, (7R,14R)-1-(difluoromethoxy)-11-(5-(dimethylphosphoryl)-6-fluoropyridin-2-yl)-6-(methyl-d3)-6,7-dihydro-7,14-methanobenzo[f]benzo[4,5]imidazo[1,2-a][1,4]diazocin-5(14H)-one]",IC50,< 100 nM
"[2H]C([2H])([2H])N1C(=O)c2cccc(OC(F)F)c2[C@H]2C[C@@H]1c1nc3ccc(-c4ccc(C(C)P(C)(C)=O)nc4)cc3n12 (stereo partly drawn) [Example 116, (7R,14R)-1-(difluoromethoxy)-11-(6-(1-(dimethylphosphoryl)ethyl)pyridin-3-yl)-6-(methyl-d3)-6,7-dihydro-7,14-methanobenzo[f]benzo[4,5]imidazo[1,2-a][1,4]diazocin-5(14H)-one]",IC50,< 100 nM
"[2H]C([2H])([2H])N1C(=O)c2cccc(OC(F)F)c2[C@H]2C[C@@H]1c1nc3ccc(-c4ccc(P(C)(C)=O)c(Cl)c4)cc3n12 [Example 117, (7R,14R)-11-(3-chloro-4-(dimethylphosphoryl)phenyl)-1-(difluoromethoxy)-6-(methyl-d3)-6,7-dihydro-7,14-methanobenzo[f]benzo[4,5]imidazo[1,2-a][1,4]diazocin-5(14H)-one]",IC50,< 100 nM
"[2H]C([2H])([2H])N1C(=O)c2cccc(OC(F)F)c2[C@H]2C[C@@H]1c1nc3ccc(-c4ccc(C(C)(C)P(C)(C)=O)nc4)cc3n12 [Example 120, (7R,14R)-1-(difluoromethoxy)-11-(6-(2-(dimethylphosphoryl)propan-2-yl)pyridin-3-yl)-6-(methyl-d3)-6,7-dihydro-7,14-methanobenzo[f]benzo[4,5]imidazo[1,2-a][1,4]diazocin-5(14H)-one]",IC50,< 100 nM
